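Step 1: Grow cells in 96-well plates. Step 2: Expose to compound for 48 hours at 5 concentrations. Step 3: Interpolate endpoints linearly; if unreached, use highest concentration. GI50 = concentration required for 50% inhibition of growth.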 Activity calls are given as the source filed them. Rule as the data show it: active = GI50 up to about 1.1 µM and inactive = higher.
Assays:
Test in all cases: DTP human tumour cell line panel, 48 h
CCRF-CEM = tested on: CCRF-CEM
A549 = tested on: A549
CAKI-1 = tested on: CAKI-1
MDA-MB-435 = tested on: MDA-MB-435
OVCAR-8 = tested on: OVCAR-8
EKVX = tested on: EKVX
Malme-3M = tested on: Malme-3M
NCI-H226 = tested on: NCI-H226
HCT-116 = tested on: HCT-116
NCI/ADR-RES = tested on: NCI/ADR-RES
TK-10 = tested on: TK-10
HOP-92 = tested on: HOP-92
UO-31 = tested on: UO-31
UACC-257 = tested on: UACC-257
OVCAR-3 = tested on: OVCAR-3
KM12 = tested on: KM12
SNB-75 = tested on: SNB-75
NCI-H460 = tested on: NCI-H460
HT-29 = tested on: HT-29
M14 = tested on: M14

**Q.** For `C[N+](C)(CCNC(=O)c1cccc2cc3ccccc3nc12)Cc1ccc([N+](=O)[O-])cc1`, which GI50 (CCRF-CEM) is on record?
**A.** > 100 µM (inactive)

**Q.** And the GI50 (A549)?
**A.** > 100 µM (inactive)

**Q.** What about the GI50 (CAKI-1) of the same compound?
**A.** > 100 µM (inactive)

**Q.** What about the GI50 (MDA-MB-435) of the same compound?
**A.** > 100 µM (inactive)

**Q.** And the GI50 (OVCAR-8)?
**A.** > 100 µM (inactive)

**Q.** What about the GI50 (EKVX) of the same compound?
**A.** > 100 µM (inactive)

**Q.** What about the GI50 (Malme-3M) of the same compound?
**A.** 49.5 µM (inactive)

**Q.** And the GI50 (NCI-H226)?
**A.** > 100 µM (inactive)

**Q.** And the GI50 (HCT-116)?
**A.** > 100 µM (inactive)

**Q.** What about the GI50 (NCI/ADR-RES) of the same compound?
**A.** > 100 µM (inactive)

**Q.** And the GI50 (TK-10)?
**A.** > 100 µM (inactive)

**Q.** And the GI50 (HOP-92)?
**A.** > 100 µM (inactive)

**Q.** What about the GI50 (UO-31) of the same compound?
**A.** > 100 µM (inactive)

**Q.** And the GI50 (UACC-257)?
**A.** > 100 µM (inactive)

**Q.** And the GI50 (OVCAR-3)?
**A.** > 100 µM (inactive)

**Q.** And the GI50 (KM12)?
**A.** > 100 µM (inactive)

**Q.** What about the GI50 (SNB-75) of the same compound?
**A.** > 100 µM (inactive)

**Q.** And the GI50 (NCI-H460)?
**A.** > 100 µM (inactive)

**Q.** What about the GI50 (HT-29) of the same compound?
**A.** > 100 µM (inactive)

**Q.** What about the GI50 (M14) of the same compound?
**A.** > 100 µM (inactive)

**Q.** With `O=Nc1c(-c2cccc([N+](=O)[O-])c2)nc2cnccn12` as the compound, how does the GI50 (CCRF-CEM) read?
**A.** 0.14 µM (active)

**Q.** What about the GI50 (A549) of the same compound?
**A.** 29.5 µM (inactive)

**Q.** What about the GI50 (CAKI-1) of the same compound?
**A.** 17 µM (inactive)

**Q.** What about the GI50 (MDA-MB-435) of the same compound?
**A.** 20.1 µM (inactive)

**Q.** What about the GI50 (OVCAR-8) of the same compound?
**A.** 14.5 µM (inactive)

**Q.** What about the GI50 (EKVX) of the same compound?
**A.** 34 µM (inactive)

**Q.** And the GI50 (Malme-3M)?
**A.** 22.2 µM (inactive)

**Q.** And the GI50 (NCI-H226)?
**A.** 18.5 µM (inactive)

**Q.** And the GI50 (HCT-116)?
**A.** 4.68 µM (inactive)

**Q.** And the GI50 (NCI/ADR-RES)?
**A.** 21.4 µM (inactive)

**Q.** What about the GI50 (TK-10) of the same compound?
**A.** 5.04 µM (inactive)

**Q.** And the GI50 (HOP-92)?
**A.** 20 µM (inactive)

**Q.** What about the GI50 (UO-31) of the same compound?
**A.** 11.7 µM (inactive)

**Q.** And the GI50 (UACC-257)?
**A.** 19.7 µM (inactive)

**Q.** And the GI50 (OVCAR-3)?
**A.** 16.8 µM (inactive)

**Q.** And the GI50 (KM12)?
**A.** 30.9 µM (inactive)

**Q.** And the GI50 (SNB-75)?
**A.** 35.2 µM (inactive)

**Q.** And the GI50 (NCI-H460)?
**A.** 33.9 µM (inactive)

**Q.** What about the GI50 (HT-29) of the same compound?
**A.** 14.3 µM (inactive)

**Q.** What about the GI50 (M14) of the same compound?
**A.** 18.7 µM (inactive)

**Q.** With `NC(=O)c1cccc(/N=c2\oc3ccc(Br)cc3cc2-c2nc3ccccc3[nH]2)c1` as the compound, how does the GI50 (CCRF-CEM) read?
**A.** 2.61 µM (inactive)

**Q.** What about the GI50 (A549) of the same compound?
**A.** 13.1 µM (inactive)

**Q.** And the GI50 (CAKI-1)?
**A.** 18 µM (inactive)

**Q.** And the GI50 (MDA-MB-435)?
**A.** 15.1 µM (inactive)

**Q.** And the GI50 (OVCAR-8)?
**A.** 7.62 µM (inactive)

**Q.** What about the GI50 (EKVX) of the same compound?
**A.** 13.9 µM (inactive)

**Q.** And the GI50 (Malme-3M)?
**A.** 22.5 µM (inactive)

**Q.** And the GI50 (NCI-H226)?
**A.** 0.075 µM (active)

**Q.** And the GI50 (HCT-116)?
**A.** 16.4 µM (inactive)

**Q.** What about the GI50 (NCI/ADR-RES) of the same compound?
**A.** 12.1 µM (inactive)

**Q.** What about the GI50 (TK-10) of the same compound?
**A.** 17 µM (inactive)

**Q.** And the GI50 (HOP-92)?
**A.** 19 µM (inactive)

**Q.** What about the GI50 (UO-31) of the same compound?
**A.** 7.76 µM (inactive)

**Q.** What about the GI50 (UACC-257) of the same compound?
**A.** 20 µM (inactive)

**Q.** What about the GI50 (OVCAR-3) of the same compound?
**A.** 16.2 µM (inactive)

**Q.** And the GI50 (KM12)?
**A.** 18.5 µM (inactive)

**Q.** And the GI50 (SNB-75)?
**A.** 1.47 µM (inactive)

**Q.** What about the GI50 (NCI-H460) of the same compound?
**A.** 15.5 µM (inactive)

**Q.** And the GI50 (HT-29)?
**A.** 15.8 µM (inactive)

**Q.** What about the GI50 (M14) of the same compound?
**A.** 15.7 µM (inactive)

**Q.** `O=C1CC(NCc2ccccc2)c2c(Cl)sc(Cl)c21` (stereo not given) was tested. Which GI50 (CCRF-CEM) did it give?
**A.** 2.54 µM (inactive)

**Q.** And the GI50 (A549)?
**A.** 33.3 µM (inactive)

**Q.** And the GI50 (CAKI-1)?
**A.** 23.2 µM (inactive)

**Q.** What about the GI50 (MDA-MB-435) of the same compound?
**A.** 24.7 µM (inactive)

**Q.** And the GI50 (OVCAR-8)?
**A.** 18 µM (inactive)

**Q.** And the GI50 (EKVX)?
**A.** 37.5 µM (inactive)

**Q.** What about the GI50 (Malme-3M) of the same compound?
**A.** 18.5 µM (inactive)

**Q.** What about the GI50 (NCI-H226) of the same compound?
**A.** 25.9 µM (inactive)

**Q.** What about the GI50 (HCT-116) of the same compound?
**A.** 15.1 µM (inactive)

**Q.** What about the GI50 (NCI/ADR-RES) of the same compound?
**A.** 28.1 µM (inactive)

**Q.** What about the GI50 (TK-10) of the same compound?
**A.** 31.3 µM (inactive)

**Q.** And the GI50 (HOP-92)?
**A.** 34.8 µM (inactive)

**Q.** What about the GI50 (UO-31) of the same compound?
**A.** 31.4 µM (inactive)

**Q.** What about the GI50 (UACC-257) of the same compound?
**A.** 19.6 µM (inactive)

**Q.** And the GI50 (OVCAR-3)?
**A.** 20 µM (inactive)

**Q.** And the GI50 (KM12)?
**A.** 29.9 µM (inactive)

**Q.** And the GI50 (SNB-75)?
**A.** 29.8 µM (inactive)

**Q.** What about the GI50 (NCI-H460) of the same compound?
**A.** > 61.4 µM (inactive)

**Q.** What about the GI50 (HT-29) of the same compound?
**A.** 28.2 µM (inactive)

**Q.** And the GI50 (M14)?
**A.** 21.8 µM (inactive)

**Q.** With `O=C(CC(=O)CC(O)(C(F)(F)F)C(F)(F)F)CC(O)(C(F)(F)F)C(F)(F)F` as the compound, how does the GI50 (CCRF-CEM) read?
**A.** > 10 µM (inactive)

**Q.** And the GI50 (A549)?
**A.** > 10 µM (inactive)

**Q.** And the GI50 (CAKI-1)?
**A.** > 10 µM (inactive)

**Q.** And the GI50 (MDA-MB-435)?
**A.** > 10 µM (inactive)

**Q.** What about the GI50 (OVCAR-8) of the same compound?
**A.** > 10 µM (inactive)

**Q.** What about the GI50 (EKVX) of the same compound?
**A.** > 10 µM (inactive)

**Q.** What about the GI50 (Malme-3M) of the same compound?
**A.** > 10 µM (inactive)

**Q.** What about the GI50 (NCI-H226) of the same compound?
**A.** > 10 µM (inactive)

**Q.** What about the GI50 (HCT-116) of the same compound?
**A.** > 10 µM (inactive)

**Q.** And the GI50 (NCI/ADR-RES)?
**A.** > 10 µM (inactive)

**Q.** And the GI50 (TK-10)?
**A.** > 10 µM (inactive)

**Q.** What about the GI50 (HOP-92) of the same compound?
**A.** 5.75 µM (inactive)

**Q.** What about the GI50 (UO-31) of the same compound?
**A.** > 10 µM (inactive)

**Q.** What about the GI50 (UACC-257) of the same compound?
**A.** > 10 µM (inactive)

**Q.** What about the GI50 (OVCAR-3) of the same compound?
**A.** > 10 µM (inactive)

**Q.** What about the GI50 (KM12) of the same compound?
**A.** > 10 µM (inactive)

**Q.** And the GI50 (SNB-75)?
**A.** > 10 µM (inactive)

**Q.** What about the GI50 (NCI-H460) of the same compound?
**A.** > 10 µM (inactive)

**Q.** And the GI50 (HT-29)?
**A.** 8.49 µM (inactive)

**Q.** What about the GI50 (M14) of the same compound?
**A.** > 10 µM (inactive)

**Q.** What does the source list for `C/C=C1/CN2[C@@H](C3=C[C@@H]4[C@@H]5N(C3=O)c3ccccc3[C@@]53CCN5C/C(=C/C)[C@@H]4C[C@H]53)C[C@@]34c5ccccc5N5C(=O)CC=C([C@H]1C[C@H]23)[C@H]54` [ISOSUNGUCINE]?
**A.** GI50 (CCRF-CEM): 1.1 µM (active); GI50 (A549): 7.66 µM (inactive); GI50 (CAKI-1): 5.86 µM (inactive); GI50 (MDA-MB-435): 5.01 µM (inactive); GI50 (OVCAR-8): 3.91 µM (inactive); GI50 (EKVX): 5.66 µM (inactive); GI50 (Malme-3M): 6.04 µM (inactive); GI50 (NCI-H226): 7.83 µM (inactive); GI50 (HCT-116): 2.94 µM (inactive); GI50 (NCI/ADR-RES): 8.81 µM (inactive); GI50 (TK-10): 7.85 µM (inactive); GI50 (HOP-92): 5.55 µM (inactive); GI50 (UO-31): 2.32 µM (inactive); GI50 (UACC-257): 1.24 µM (inactive); GI50 (OVCAR-3): 5.85 µM (inactive); GI50 (KM12): 5.41 µM (inactive); GI50 (SNB-75): 7.91 µM (inactive); GI50 (NCI-H460): 6.62 µM (inactive); GI50 (HT-29): 2.11 µM (inactive); GI50 (M14): 1.18 µM (inactive)
